This test deals with Human cGAS amino acids 155-522 (Homo sapiens (Human), UniProt Q8N884). Description: cGAS biochemical activity assay (ATP remaining, Kinase-Glo Max luminescence). The settings on record: human cGAS 155-522, ATP remaining (Kinase-Glo Max); read-out: cGAS IC50. A general note: In Kinase-Glo more light means more ATP remaining.
Human cGAS amino acids 155-522, sequence (Q8N884 157-522): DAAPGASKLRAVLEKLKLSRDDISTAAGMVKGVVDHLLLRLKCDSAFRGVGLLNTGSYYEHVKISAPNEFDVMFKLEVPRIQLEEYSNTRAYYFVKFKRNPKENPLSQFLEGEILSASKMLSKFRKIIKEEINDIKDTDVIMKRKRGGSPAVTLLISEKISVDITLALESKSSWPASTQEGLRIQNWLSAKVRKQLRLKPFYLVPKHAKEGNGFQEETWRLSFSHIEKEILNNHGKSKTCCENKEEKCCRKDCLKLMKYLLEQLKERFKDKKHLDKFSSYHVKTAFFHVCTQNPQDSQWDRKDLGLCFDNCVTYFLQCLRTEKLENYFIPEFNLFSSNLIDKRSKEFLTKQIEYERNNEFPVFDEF
As usually defined, the IC50 is the concentration that inhibits the measured activity by half. For `Cc1[nH]c2c(-c3ccccc3)c(C(F)(F)F)nn2c(=O)c1-c1ccncc1` [Compound C1001, 5-methyl-3-phenyl-6-(pyridin-4-yl)-2-(trifluoromethyl)pyrazolo[1,5-a]pyrimidin-7(4H)-one], the concentration for half-maximal inhibition (IC50) lay in the range of 20 to 250 µM.

`Cc1cccc(-c2c(C)[nH]c3c(-c4ccccc4)c(C(F)(F)F)nn3c2=O)c1` [Compound C1002, 5-methyl-3-phenyl-6-(m-tolyl)-2-(trifluoromethyl)pyrazolo[1,5-a]pyrimidin-7(4H)-one]: the IC50 lay within 20 to 250 µM.

Regarding `Cc1[nH]c2c(-c3ccccc3)c(C(F)(F)F)nn2c(=O)c1-c1cccnc1` [Compound C1003, 5-methyl-3-phenyl-6-(pyridin-3-yl)-2-(trifluoromethyl)pyrazolo[1,5-a]pyrimidin-7(4H)-one], the IC50 was 20 to 250 µM.

As for `Cc1[nH]c2c(-c3ccccc3)c(C(F)(F)F)nn2c(=O)c1-c1cccc(Cl)c1` [Compound C1004, 6-(3-chlorophenyl)-5-methyl-3-phenyl-2-(trifluoromethyl)pyrazolo[1,5-a]pyrimidin-7(4H)-one], the IC50 is 20 to 250 µM.

As to `Cc1[nH]c2c(-c3ccccc3)c(C(F)(F)F)nn2c(=O)c1-c1ccc2nccn2c1` [Compound C1006, 6-(imidazo[1,2-a]pyridin-6-yl)-5-methyl-3-phenyl-2-(trifluoromethyl)pyrazolo[1,5-a]pyrimidin-7(4H)-one], the concentration for half-maximal inhibition (IC50) was greater than 250 µM.

On to `Cc1[nH]c2c(-c3ccccc3)c(C(F)(F)F)nn2c(=O)c1-c1cnc2ccccc2c1` [Compound C1007, 5-methyl-3-phenyl-6-(quinolin-3-yl)-2-(trifluoromethyl)pyrazolo[1,5-a]pyrimidin-7(4H)-one], for which the concentration for half-maximal inhibition (IC50) fell in the range of 20 to 250 µM.

Consider `Cc1nc(-c2c(C)[nH]c3c(-c4ccccc4)c(C(F)(F)F)nn3c2=O)[nH]c1C` [Compound C1021, 6-(4,5-dimethyl-1H-imidazol-2-yl)-5-methyl-3-phenyl-2-(trifluoromethyl)pyrazolo[1,5-a]pyrimidin-7(4H)-one], for which the IC50 was 20 to 250 µM.

Regarding `Cc1[nH]c2c(-c3ccccc3)c(C(F)(F)F)nn2c(=O)c1-c1nc2cc(Cl)ccc2o1` [Compound C1028, 6-(5-chlorobenzo[d]oxazol-2-yl)-5-methyl-3-phenyl-2-(trifluoromethyl)pyrazolo[1,5-a]pyrimidin-7(4H)-one], the IC50 is greater than 250 µM.

With `Cc1cccc(-c2c(C(F)(F)F)nn3c(=O)c(-c4nc5c(o4)CCCC5)c(C)[nH]c23)c1` [Compound C1034, 5-methyl-6-(4,5,6,7-tetrahydrobenzo[d]oxazol-2-yl)-3-(m-tolyl)-2-(trifluoromethyl)pyrazolo[1,5-a]pyrimidin-7(4H)-one], the half-maximal inhibitory concentration (IC50) is greater than 250 µM.

Turning to `Cc1[nH]c2c(-c3cccc(F)c3)c(C(F)(F)F)nn2c(=O)c1-c1nc2c(o1)CCCC2` [Compound C1035, 3-(3-fluorophenyl)-5-methyl-6-(4,5,6,7-tetrahydrobenzo[d]oxazol-2-yl)-2-(trifluoromethyl)pyrazolo[1,5-a]pyrimidin-7(4H)-one], the IC50 is greater than 250 µM.

On to `Cc1[nH]c2c(-c3cccnc3)c(C(F)(F)F)nn2c(=O)c1-c1nc2c(o1)CCCC2` [Compound C1036, 5-methyl-3-(pyridin-3-yl)-6-(4,5,6,7-tetrahydrobenzo[d]oxazol-2-yl)-2-(trifluoromethyl)pyrazolo[1,5-a]pyrimidin-7(4H)-one], for which the 50% inhibitory concentration (IC50) is greater than 250 µM.

Regarding `COc1cccc2oc(-c3c(C)[nH]c4c(-c5ccccc5)c(C(=O)O)nn4c3=O)nc12` [Compound C1043, 6-(4-methoxybenzo[d]oxazol-2-yl)-5-methyl-7-oxo-3-phenyl-4,7-dihydropyrazolo[1,5-a]pyrimidine-2-carboxylic acid], the half-maximal inhibitory concentration (IC50) is greater than 250 µM.

As to `COc1cccn2cc(-c3c(C)[nH]c4c(-c5ccccc5)c(C(F)(F)F)nn4c3=O)nc12` [Compound C1044, 6-(8-methoxyimidazo[1,2-a]pyridin-2-yl)-5-methyl-3-phenyl-2-(trifluoromethyl)pyrazolo[1,5-a]pyrimidin-7(4H)-one], the IC50 was less than 20 µM.

For the compound `COc1cccc2oc(-c3c(C)[nH]c4c(-c5ccccc5)c(=O)[nH]n4c3=O)nc12` [Compound C1049, 6-(4-methoxybenzo[d]oxazol-2-yl)-5-methyl-3-phenylpyrazolo[1,5-a]pyrimidine-2,7(1H,4H)-dione], the 50% inhibitory concentration (IC50) was 20 to 250 µM.

For `COc1cccc2oc(-c3c(C)[nH]c4c(-c5ccccc5)c(N)nn4c3=O)nc12` [Compound C1063, 2-amino-6-(4-methoxybenzo[d]oxazol-2-yl)-5-methyl-3-phenylpyrazolo[1,5-a]pyrimidin-7(4H)-one], the IC50 is greater than 250 µM.

Turning to `COc1cccc2oc(-c3c(OCCN(C)C)[nH]c4c(-c5ccccc5)c(C(F)(F)F)nn4c3=O)nc12` [Compound C1067, 5-(2-(dimethylamino)ethoxy)-6-(4-methoxybenzo[d]oxazol-2-yl)-3-phenyl-2-(trifluoromethyl)pyrazolo[1,5-a]pyrimidin-7(4H)-one], the IC50 was greater than 250 µM.

On to `COc1cccc2oc(-c3c(C)[nH]c4c(-c5ccccc5)c(S(C)(=O)=O)nn4c3=O)nc12` [Compound C1068, 6-(4-methoxybenzo[d]oxazol-2-yl)-5-methyl-2-(methylsulfonyl)-3-phenylpyrazolo[1,5-a]pyrimidin-7(4H)-one], for which the IC50 was in the range of 20 to 250 µM.

`COc1cccc2oc(-c3c(C)[nH]c4c(-c5ccccc5)c(OCC(=O)O)nn4c3=O)nc12` [Compound C1072, 2-((6-(4-methoxybenzo[d]oxazol-2-yl)-5-methyl-7-oxo-3-phenyl-4,7-dihydropyrazolo[1,5-a]pyrimidin-2-yl)oxy)acetic acid]: the IC50 is 20 to 250 µM.

In the case of `COc1cccc2oc(-c3c(C)[nH]c4c(-c5ccccc5)c(OC5CCOCC5)nn4c3=O)nc12` [Compound C1080, 6-(4-methoxybenzo[d]oxazol-2-yl)-5-methyl-3-phenyl-2-((tetrahydro-2H-pyran-4-yl)oxy)pyrazolo[1,5-a]pyrimidin-7(4H)-one], the 50% inhibitory concentration (IC50) fell in the range of 20 to 250 µM.

For `COCCOc1nn2c(=O)c(-c3nc4c(OC)cccc4o3)c(C)[nH]c2c1-c1ccccc1` [Compound C1083, 6-(4-methoxybenzo[d]oxazol-2-yl)-2-(2-methoxyethoxy)-5-methyl-3-phenylpyrazolo[1,5-a]pyrimidin-7(4H)-one], the IC50 is greater than 250 µM.

As for `COc1ccccc1-c1c(C(F)(F)F)nn2c(=O)c(-c3nc4c(OC)cccc4o3)c(C)[nH]c12` [Compound C1086, 6-(4-methoxybenzo[d]oxazol-2-yl)-3-(2-methoxyphenyl)-5-methyl-2-(trifluoromethyl)pyrazolo[1,5-a]pyrimidin-7(4H)-one], the IC50 is greater than 250 µM.

Turning to `COc1cccc2c1nc(-c1c(C)[nH]c3c(-c4ccccc4)c(C(F)(F)F)nn3c1=O)n2C` [Compound C1087, 6-(4-methoxy-1-methyl-1H-benzo[d]imidazol-2-yl)-5-methyl-3-phenyl-2-(trifluoromethyl)pyrazolo[1,5-a]pyrimidin-7(4H)-one], the IC50 fell in the range of 20 to 250 µM.

As to `COCc1[nH]c2c(-c3ccccc3)c(C(=O)O)nn2c(=O)c1-c1nc2c(OC)cccc2o1` [Compound C1090, 6-(4-methoxybenzo[d]oxazol-2-yl)-5-(methoxymethyl)-7-oxo-3-phenyl-4,7-dihydropyrazolo[1,5-a]pyrimidine-2-carboxylic acid], the IC50 was in the range of 20 to 250 µM.

In the case of `Cc1[nH]c2c(-c3ccccc3)c(C(F)(F)F)nn2c(=O)c1-c1nc(C(N)=O)co1` [Compound C1102, 2-(5-methyl-7-oxo-3-phenyl-2-(trifluoromethyl)-4,7-dihydropyrazolo[1,5-a]pyrimidin-6-yl)oxazole-4-carboxamide], the IC50 lay in the range of 20 to 250 µM.

With `COc1cccn2nc(-c3c(C)[nH]c4c(-c5ccccc5)c(C(F)(F)F)nn4c3=O)nc12` [Compound C1110, 6-(8-methoxy-[1,2,4]triazolo[1,5-a]pyridin-2-yl)-5-methyl-3-phenyl-2-(trifluoromethyl)pyrazolo[1,5-a]pyrimidin-7(4H)-one], the half-maximal inhibitory concentration (IC50) was in the range of 20 to 250 µM.

For `COc1ccc(-c2c(C(F)(F)F)nn3c(=O)c(-c4nc5c(OC)cccc5o4)c(C)[nH]c23)cc1` [Compound C1115, 6-(4-methoxybenzo[d]oxazol-2-yl)-3-(4-methoxyphenyl)-5-methyl-2-(trifluoromethyl)pyrazolo[1,5-a]pyrimidin-7(4H)-one], the half-maximal inhibitory concentration (IC50) was 20 to 250 µM.

Turning to `COc1cccc(-c2c(C(F)(F)F)nn3c(=O)c(-c4nc5c(OC)cccc5o4)c(C)[nH]c23)c1` [Compound C1120, 6-(4-methoxybenzo[d]oxazol-2-yl)-3-(3-methoxyphenyl)-5-methyl-2-(trifluoromethyl)pyrazolo[1,5-a]pyrimidin-7(4H)-one], the IC50 fell in the range of 20 to 250 µM.

For the compound `COc1cccc2oc(-c3c(C)[nH]c4c(-c5ccccn5)c(C(F)(F)F)nn4c3=O)nc12` [Compound C1127, 6-(4-methoxybenzo[d]oxazol-2-yl)-5-methyl-3-(pyridin-2-yl)-2-(trifluoromethyl)pyrazolo[1,5-a]pyrimidin-7(4H)-one], the IC50 fell in the range of 20 to 250 µM.

`COc1cccc2oc(-c3c(C)[nH]c4c(-c5cccnc5)c(C(F)(F)F)nn4c3=O)nc12` [Compound C1129, 6-(4-methoxybenzo[d]oxazol-2-yl)-5-methyl-3-(pyridin-3-yl)-2-(trifluoromethyl)pyrazolo[1,5-a]pyrimidin-7(4H)-one]: the concentration for half-maximal inhibition (IC50) was 20 to 250 µM.

In the case of `COc1cccc2oc(-c3c(C)[nH]c4c(-c5c(F)cccc5F)c(C(F)(F)F)nn4c3=O)nc12` [Compound C1133, 3-(2,6-difluorophenyl)-6-(4-methoxybenzo[d]oxazol-2-yl)-5-methyl-2-(trifluoromethyl)pyrazolo[1,5-a]pyrimidin-7(4H)-one], the IC50 is 20 to 250 µM.

Regarding `COCCNC(=O)c1[nH]c2c(-c3ccccc3)c(C(F)(F)F)nn2c(=O)c1-c1nc2c(OC)cccc2o1` [Compound C1142, 6-(4-methoxybenzo[d]oxazol-2-yl)-N-(2-methoxyethyl)-7-oxo-3-phenyl-2-(trifluoromethyl)-4,7-dihydropyrazolo[1,5-a]pyrimidine-5-carboxamide], the IC50 is less than 20 µM.

Regarding `COc1cccc2oc(-c3c(C(C)=O)[nH]c4c(-c5ccccc5)c(C(F)(F)F)nn4c3=O)nc12` [Compound C1144, 5-acetyl-6-(4-methoxybenzo[d]oxazol-2-yl)-3-phenyl-2-(trifluoromethyl)pyrazolo[1,5-a]pyrimidin-7(4H)-one], the IC50 lay in the range of 20 to 250 µM.

The record behind these values is US10738056B2 (Aduro BioTech, Inc., priority 2017, dated 2020).
